Experimental data as given in ChEMBL document CHEMBL1201862, “PubChem BioAssay data set” (2004).
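Method: 48-hour compound exposure of cells in 96-well plates, five concentrations, linear interpolation of endpoints. At the GI50, growth is halved.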 Activity calls are given as the source filed them. Rule as the data show it: active = GI50 up to about 1.1 µM and inactive = higher.

Legend:
Test in all cases: DTP human tumour cell line panel, 48 h
[1] = tested on: PC-3
[2] = tested on: SN12C
[3] = tested on: MDA-N
[4] = tested on: A549
[5] = tested on: HOP-92
[6] = tested on: Malme-3M
[7] = tested on: HT-29
[8] = tested on: OVCAR-4
[9] = tested on: NCI-H226
[10] = tested on: NCI-H522
[11] = tested on: M14
[12] = tested on: TK-10
[13] = tested on: OVCAR-8
[14] = tested on: BT-549
[15] = tested on: RXF 393
[16] = tested on: LOX IMVI
[17] = tested on: CAKI-1
[18] = tested on: SK-OV-3

| Structure (SMILES) | GI50 [1] | GI50 [2] | GI50 [3] | GI50 [4] | GI50 [5] | GI50 [6] | GI50 [7] | GI50 [8] | GI50 [9] | GI50 [10] | GI50 [11] | GI50 [12] | GI50 [13] | GI50 [14] | GI50 [15] | GI50 [16] | GI50 [17] | GI50 [18] |
| --- | --- | --- | --- | --- | --- | --- | --- | --- | --- | --- | --- | --- | --- | --- | --- | --- | --- | --- |
| NCCN1C(=O)c2ccccc2C1(O)c1ccc(Cl)cc1 (stereo unspecified) | 20.3 µM (inactive) | 35.2 µM (inactive) | 18.2 µM (inactive) | 23.9 µM (inactive) | 10.4 µM (inactive) | 14.1 µM (inactive) | 19.6 µM (inactive) | 28.5 µM (inactive) | 48.8 µM (inactive) | 14.2 µM (inactive) | 19 µM (inactive) | 17.9 µM (inactive) | 37.2 µM (inactive) | 42.6 µM (inactive) | 17.3 µM (inactive) | 16.6 µM (inactive) | 24.5 µM (inactive) | 24.4 µM (inactive) |
| COc1ccc(OC)c2c(C)ccnc12 | 20.3 µM (inactive) | 22.1 µM (inactive) | 26.3 µM (inactive) | 21.4 µM (inactive) | 18.6 µM (inactive) | 12.2 µM (inactive) | 17.1 µM (inactive) | 9.77 µM (inactive) | 25.5 µM (inactive) | 4.1 µM (inactive) | 10.6 µM (inactive) | 81.7 µM (inactive) | 14.9 µM (inactive) | 27.4 µM (inactive) | 16.1 µM (inactive) | 5.28 µM (inactive) | 28.9 µM (inactive) | > 86.1 µM (inactive) |
| O=[N+]([O-])c1cc([As](Br)c2ccc(O)c([N+](=O)[O-])c2)ccc1O | 1.95 µM (inactive) | 1.65 µM (inactive) | 1.53 µM (inactive) | 2.62 µM (inactive) | 1.38 µM (inactive) | 0.632 µM (active) | 3.43 µM (inactive) | 1.66 µM (inactive) | 1.5 µM (inactive) | 0.145 µM (active) | 2.03 µM (inactive) | 1.58 µM (inactive) | 1.79 µM (inactive) | 1.88 µM (inactive) | 1.56 µM (inactive) | 1.48 µM (inactive) | 1.7 µM (inactive) | 3.39 µM (inactive) |
| COc1cc2c(c3c1c(=O)c1ccccc1n3C)C=CC1(CCCCC1)O2 | 3.78 µM (inactive) | 6.28 µM (inactive) | 2.96 µM (inactive) | 0.446 µM (active) | 3.24 µM (inactive) | 3.43 µM (inactive) | 2.61 µM (inactive) | 4.65 µM (inactive) | 8.07 µM (inactive) | 3.96 µM (inactive) | 2.68 µM (inactive) | > 8.95 µM (inactive) | 4.81 µM (inactive) | 4.84 µM (inactive) | 0.822 µM (active) | 3.75 µM (inactive) | 0.764 µM (active) | 5.53 µM (inactive) |
| NC(=S)N/N=C\c1nccc2ccccc12 | 0.685 µM (active) | 0.262 µM (active) | 0.429 µM (active) | 0.413 µM (active) | 0.264 µM (active) | 1.73 µM (inactive) | 0.485 µM (active) | 0.309 µM (active) | 0.184 µM (active) | 0.908 µM (active) | 0.383 µM (active) | 0.551 µM (active) | 0.209 µM (active) | 0.424 µM (active) | 0.357 µM (active) | 0.324 µM (active) | 0.33 µM (active) | 0.2 µM (active) |
| CCOC(=O)Cn1c(=O)c2cc(-c3ccccc3)cc3c(Cl)nc4c(OC)c(OC)cc1c4c32 | 15.9 µM (inactive) | 16.2 µM (inactive) | 17.7 µM (inactive) | 28 µM (inactive) | 10.7 µM (inactive) | 0.578 µM (active) | 13.8 µM (inactive) | 21.6 µM (inactive) | > 39.6 µM (inactive) | 14.8 µM (inactive) | 15.6 µM (inactive) | 31.7 µM (inactive) | 15.6 µM (inactive) | 18.5 µM (inactive) | 14.8 µM (inactive) | 11.6 µM (inactive) | 27.2 µM (inactive) | 43.8 µM (inactive) |
| CC(=O)C(=N\Nc1ccc(Cl)cc1)/C(C)=N/c1ccc(C)cc1 | 28.6 µM (inactive) | 45.7 µM (inactive) | 31.9 µM (inactive) | 29.3 µM (inactive) | 16.6 µM (inactive) | 20.7 µM (inactive) | 22.5 µM (inactive) | > 100 µM (inactive) | 29.6 µM (inactive) | 19.7 µM (inactive) | 22.1 µM (inactive) | 33.5 µM (inactive) | 35.6 µM (inactive) | 51.4 µM (inactive) | 23 µM (inactive) | 45 µM (inactive) | 49.3 µM (inactive) | 46 µM (inactive) |
